Patent publication US20230312550A1, “N-(2-(4-CYANOTHIAZOLIDIN-3-YL)-2-OXOETHYL)-QUINOLINE-4-CARBOXAMIDES” (AstraZeneca AB, priority 2020, published 2023)
In brackets after ≈: the same amount, converted by molar mass.

How the values were obtained:
FAP = FAP (Homo sapiens (Human), UniProt Q12884); assay: hFAP inhibition assay; assay type: biochemical; conditions: Ala-Pro-AMC 20 μM, n = 1 or geometric mean n = 2-3
Procedure: 384 low volume black plates (Greiner #784076) were used. 4 μL, 0.48 nM enzyme solution (100 mM Tris HCl, 100 mM NaCl, 0.05% Chaps, pH 7.4) was added to 40 nL compounds (in DMSO) at 10 CR, 3 fold dilution series from 50 μM FAC. Plates were incubated for 15 min at rt in dark. 4 μL, 40 μM substrate solution (100 mM Tris HCl, 100 mM NaCl, 0.05% Chaps, pH 7.4) was added to each well. Plates were centrifuged at 1000 rpm and incubated for 30 min at rt in dark. The plates were read on a PHERAstar® reader with excitation 340 nm and emission 460 nm. Data were analyzed in Genedata Screener®. IC50 values were determined by plotting % inhibition versus log compound concentration and using a one site dose response model.

[1] = molecular target: human Fibroblast activation protein alpha (hFAP) (Homo sapiens (Human), UniProt Q12884); assay: hFAP inhibition assay (tight binders); assay type: biochemical; conditions: Ala-Pro-AMC 20 μM, n = 1 or geometric mean n = 2-6; further: hFAP 2.4 pM
Sequence of human Fibroblast activation protein alpha (hFAP) (Q12884 38-760): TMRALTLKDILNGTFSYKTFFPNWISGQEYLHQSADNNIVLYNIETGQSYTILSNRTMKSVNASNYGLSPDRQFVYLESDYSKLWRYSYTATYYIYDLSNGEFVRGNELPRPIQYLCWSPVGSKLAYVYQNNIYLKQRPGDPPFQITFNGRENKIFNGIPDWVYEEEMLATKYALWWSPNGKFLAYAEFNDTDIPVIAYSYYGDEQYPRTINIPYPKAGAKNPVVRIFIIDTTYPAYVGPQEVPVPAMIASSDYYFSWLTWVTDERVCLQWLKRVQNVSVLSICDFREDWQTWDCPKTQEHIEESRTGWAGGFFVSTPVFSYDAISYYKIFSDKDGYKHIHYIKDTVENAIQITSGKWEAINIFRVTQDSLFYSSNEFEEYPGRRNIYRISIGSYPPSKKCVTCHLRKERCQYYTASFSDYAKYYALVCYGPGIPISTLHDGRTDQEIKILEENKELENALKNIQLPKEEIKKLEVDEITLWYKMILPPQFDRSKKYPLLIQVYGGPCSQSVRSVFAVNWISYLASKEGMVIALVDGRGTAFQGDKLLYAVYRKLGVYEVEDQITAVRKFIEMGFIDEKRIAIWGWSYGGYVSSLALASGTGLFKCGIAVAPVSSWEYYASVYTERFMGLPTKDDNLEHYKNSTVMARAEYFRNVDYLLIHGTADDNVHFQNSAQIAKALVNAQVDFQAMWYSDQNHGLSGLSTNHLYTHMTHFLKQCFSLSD
Procedure: The plates were read on a PHERAstar® reader with excitation 340 nm and emission 460 nm. Data were analyzed in Genedata Screener®. IC50 values were determined by plotting % inhibition versus log compound concentration and using a one site dose response model.

hFAP (M39-A757) = hFAP (M39-A757) (Homo sapiens (Human), UniProt Q12884); assay: hFAP binding assay (surface plasmon resonance); conditions: SPR, 20° C.; for hFAP Binding assay k(off) / hFAP Binding assay k(on): single cycle kinetics; for Kd: n = 1 or geometric mean n = 2-4
Sequence of hFAP (M39-A757) (Q12884 39-757): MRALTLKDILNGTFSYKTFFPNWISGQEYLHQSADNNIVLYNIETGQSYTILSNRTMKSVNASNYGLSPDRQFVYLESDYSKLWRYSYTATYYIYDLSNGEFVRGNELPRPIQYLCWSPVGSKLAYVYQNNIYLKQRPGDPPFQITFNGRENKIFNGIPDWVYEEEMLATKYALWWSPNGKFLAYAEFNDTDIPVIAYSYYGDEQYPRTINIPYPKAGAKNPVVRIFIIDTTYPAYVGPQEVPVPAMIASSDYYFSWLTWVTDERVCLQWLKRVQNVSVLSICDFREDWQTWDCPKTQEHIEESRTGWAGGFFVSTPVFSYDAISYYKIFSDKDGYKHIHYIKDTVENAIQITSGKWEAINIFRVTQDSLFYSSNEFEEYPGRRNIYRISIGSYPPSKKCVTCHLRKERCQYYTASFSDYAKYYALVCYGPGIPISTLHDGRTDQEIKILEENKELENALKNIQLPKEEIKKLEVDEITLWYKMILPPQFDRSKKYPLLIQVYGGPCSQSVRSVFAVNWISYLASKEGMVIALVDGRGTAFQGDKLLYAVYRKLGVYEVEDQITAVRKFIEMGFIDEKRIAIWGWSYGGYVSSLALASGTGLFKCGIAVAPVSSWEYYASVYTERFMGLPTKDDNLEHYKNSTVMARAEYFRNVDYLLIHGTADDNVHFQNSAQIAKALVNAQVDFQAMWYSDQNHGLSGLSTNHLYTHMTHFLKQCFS

[2] = molecular target: Prolyl endopeptidase, Prolyl Oligopeptidase (hPREP) (Homo sapiens (Human), UniProt P48147); assay: hPrep inhibition assay; assay type: biochemical; conditions: hPREP 0.6 nM, Z-Gly-Pro-amino-methylcoumarin 50 μM; read-out: PREP IC50
Sequence of Prolyl endopeptidase, Prolyl Oligopeptidase (hPREP) (P48147 whole entry): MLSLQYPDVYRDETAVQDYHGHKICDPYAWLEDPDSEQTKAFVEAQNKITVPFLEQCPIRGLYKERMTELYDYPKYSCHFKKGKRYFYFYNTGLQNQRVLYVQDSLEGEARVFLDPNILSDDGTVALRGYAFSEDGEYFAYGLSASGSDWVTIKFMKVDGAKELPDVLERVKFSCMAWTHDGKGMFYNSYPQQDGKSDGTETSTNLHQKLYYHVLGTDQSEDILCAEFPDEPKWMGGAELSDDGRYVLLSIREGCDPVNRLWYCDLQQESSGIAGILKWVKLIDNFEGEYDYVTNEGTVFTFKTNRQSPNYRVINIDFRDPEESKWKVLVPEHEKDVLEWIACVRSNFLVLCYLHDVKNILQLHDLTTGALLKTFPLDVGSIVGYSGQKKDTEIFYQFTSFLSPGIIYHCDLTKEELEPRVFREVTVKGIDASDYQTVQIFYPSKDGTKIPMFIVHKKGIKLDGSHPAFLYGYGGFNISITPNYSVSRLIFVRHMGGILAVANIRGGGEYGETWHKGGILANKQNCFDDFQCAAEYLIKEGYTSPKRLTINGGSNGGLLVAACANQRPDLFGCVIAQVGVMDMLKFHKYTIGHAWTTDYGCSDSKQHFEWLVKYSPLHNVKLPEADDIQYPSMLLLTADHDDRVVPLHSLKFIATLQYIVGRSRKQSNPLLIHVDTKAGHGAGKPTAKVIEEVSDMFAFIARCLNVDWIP
Summary of the method: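 Recombinant human PREP at 0.6 nM final with Z-Gly-Pro-AMC substrate at 50 μM final in Tris-HCl pH 7.5, NaCl, Triton X-100, glutathione; 15 min rt preincubation then 20 min rt reaction in dark. AMC fluorescence (ex 340/em 460 nm); IC50 from one-site dose-response fit of % inhibition.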

Kinetic solubility = conditions: kinetic from dmso stock, Solubility, kinetic solubility; n = 1 or average of n = 2-3
Procedure: Kinetic solubility was measured as described in Comput Aided Mol Des 2015, 29, 795.

[3] = Metabolic stability in rat hepatocytes (rHep); conditions: n = 1 or geometric mean of n = 2-3
[4] = Metabolic stability in human liver microsomes (HLM); conditions: human, HLM CLint, n = 1 or average of n = 2-3
Procedure: Metabolic stability in HLM was measured as described in J Comput Aided Mol Des 2015, 29, 795.

Caco-2 cell permeability = conditions: human
Procedure: Caco-2 cell permeability was measured as described in Mol Pharm 2017, 14, 1601.

Sequence of FAP (Q12884 38-760): as the sequence (Q12884 38-760) above

Structure (SMILES)	IC50 (FAP; hFAP […])	IC50 [1]	hFAP Binding assay k(off) (hFAP (M39-A757))	hFAP Binding assay k(on) (hFAP (M39-A757))	Kd (hFAP (M39-A757))	IC50 [2]	solubility (Kinetic solubility)	rHep CLint [3]	microsomal CLint [4]	IC50 (FAP; hFAP 0.24 nM)	Papp A→B (Caco-2 cell permeability)	Papp B→A (Caco-2 cell permeability)	efflux ratio (Caco-2 cell permeability)
N#C[C@@H]1CSCN1C(=O)CNC(=O)c1ccnc2ccc(N3CC(F)(C4CC4)C3)cc12 [Example 31, (R)—N-(2-(4-Cyanothiazolidin-3-yl)-2-oxoethyl)-6-(3-cyclopropyl-3-fluoroazetidin-1-yl)quinoline-4-carboxamide]	0.22 nM	0.1 nM	0.00024 s⁻¹	9700000 M⁻¹ s⁻¹	0.031 nM	760 nM	180 µM (≈ 79.1 µg/mL)	14 μL/min/1E6	45 µL/min/mg	–	–	–	–
COC[C@@H]1CCCN1c1ccc2nccc(C(=O)NCC(=O)N3CSC[C@H]3C#N)c2c1 [Example 212, N-(2-((R)-4-Cyanothiazolidin-3-yl)-2-oxoethyl)-6-((S)-2-(methoxymethyl)-pyrrolidin-1-yl)quinoline-4-carboxamide]	0.29 nM	0.26 nM	0.00034 s⁻¹	3300000 M⁻¹ s⁻¹	0.1 nM	330 nM	16 µM (≈ 7.03 µg/mL)	57 μL/min/1E6	110 µL/min/mg	–	–	–	–
N#C[C@@H]1CSCN1C(=O)CNC(=O)c1ccnc2ccc(N3CC(F)(F)C3)cc12 [Example 23, (R)—N-(2-(4-Cyanothiazolidin-3-yl)-2-oxoethyl)-6-(3,3-difluoroazetidin-1-yl)quinoline-4-carboxamide]	0.31 nM	0.2 nM	0.00018 s⁻¹	2100000 M⁻¹ s⁻¹	0.085 nM	160 nM	63 µM (≈ 26.3 µg/mL)	27 μL/min/1E6	25 µL/min/mg	–	–	–	–
N#C[C@@H]1CSCN1C(=O)CNC(=O)c1ccnc2ccc(-c3cncnc3)cc12 [Example 127, (R)—N-(2-(4-Cyanothiazolidin-3-yl)-2-oxoethyl)-6-(pyrimidin-5-yl)-quinoline-4-carboxamide]	0.38 nM	0.16 nM	0.0020 s⁻¹	6000000 M⁻¹ s⁻¹	0.34 nM	130 nM	120 µM (≈ 48.5 µg/mL)	8.2 μL/min/1E6	11 µL/min/mg	–	–	–	–
N#C[C@@H]1CSCN1C(=O)CNC(=O)c1ccnc2ccc(N3CCC(C(F)(F)F)CC3)cc12 [Example 39, (R)—N-(2-(4-Cyanothiazolidin-3-yl)-2-oxoethyl)-6-(4-(trifluoromethyl)-piperidin-1-yl)quinoline-4-carboxamide]	0.28 nM	0.1 nM	0.00016 s⁻¹	4900000 M⁻¹ s⁻¹	0.04 nM	500 nM	22 µM (≈ 10.5 µg/mL)	31 μL/min/1E6	120 µL/min/mg	–	–	–	–
C[C@@H]1COC[C@H](C)N1c1cc2c(C(=O)NCC(=O)N3CSC[C@H]3C#N)ccnc2cc1Br [Example 100, 7-Bromo-N-(2-((R)-4-cyanothiazolidin-3-yl)-2-oxoethyl)-6-((3S,5R)-3,5-dimethylmorpholino)quinoline-4-carboxamide]	0.5 nM	0.27 nM	0.0022 s⁻¹	3000000 M⁻¹ s⁻¹	0.73 nM	170 nM	36 µM (≈ 18.7 µg/mL)	280 μL/min/1E6	–	–	–	–	–
N#C[C@@H]1CSCN1C(=O)CNC(=O)c1ccnc2ccc(N3CCC[C@H](F)C3)cc12 (mixture of isomers) [Example 40, N-(2-((R)-4-Cyanothiazolidin-3-yl)-2-oxoethyl)-6-((RS)-3-fluoropiperidin-1-yl)quinoline-4-carboxamide]	–	0.065 nM	0.000046 s⁻¹	1300000 M⁻¹ s⁻¹	0.043 nM	280 nM	–	–	–	0.24 nM	–	–	–
N#C[C@@H]1CSCN1C(=O)CNC(=O)c1ccnc2ccc(N3C[C@@H]4C[C@H]3CO4)cc12 [Example 75, 6-((1S,4S)-2-Oxa-5-azabicyclo[2.2.1]heptan-5-yl)-N-(2-((R)-4-cyano-thiazolidin-3-yl)-2-oxoethyl)quinoline-4-carboxamide]	–	0.05 nM	0.000024 s⁻¹	2300000 M⁻¹ s⁻¹	0.0063 nM	490 nM	930 µM (≈ 394 µg/mL)	6.7 μL/min/1E6	9 µL/min/mg	–	0.77 ×10⁻⁶ cm/s	17 ×10⁻⁶ cm/s	21
